PMC8291485, “Development of New Benzylpiperazine Derivatives as σ1 Receptor Ligands with in Vivo Antinociceptive and Anti-Allodynic Effects” (ACS Chemical Neuroscience, 2021)
“Also recorded” adds a separate entry of the source. Like-named read-outs stand apart in the source and are kept apart here.

Legend:
σ2R = biological target: T1, σ2R (Rattus norvegicus, UniProt Q5U3Y7); design: method as in PMID 22784008, PMID 31258480, PMID 31981633, PMID 32691179, PMID 28644012; conditions: cited from earlier work
T1 sequence (Q5U3Y7 1-176): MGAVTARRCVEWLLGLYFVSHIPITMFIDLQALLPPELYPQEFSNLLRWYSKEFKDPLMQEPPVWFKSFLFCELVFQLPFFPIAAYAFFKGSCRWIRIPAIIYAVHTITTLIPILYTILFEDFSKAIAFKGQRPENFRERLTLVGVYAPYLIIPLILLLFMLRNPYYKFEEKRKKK

[1] = tested on: CCI-induced mechanical allodynia; assay: Chronic constriction injury (CCI) model, von Frey mechanical allodynia; format: in vivo, CD-1 mice; conditions: for anti-allodynic effect in the CCI model (result in words): von Frey, 20–80 min post-injection, 15 10–60 mg/kg i.p. (oxalate salt)
Experimental: CCI was introduced in CD-1 mice that were first anesthetized with isoflurane as described by Hoot et al.[66] and Cirino et al.[35] to induce mechanical allodynia.[51]−[54] After anesthetization, mice were subjected to surgery where an incision was made along the surface of the biceps femoris of the right hind paw.[66] Blunt forceps were used to split the muscle and expose the right sciatic nerve. The tips of two 0.1–10 μL pipet tips facing opposite directions were passed under the sciatic nerve to allow for easy passing of two sutures under the nerve, 1 mm apart. The sutures were tied loosely around the nerve and knotted twice, and the skin was closed with 29 mm skin staples. Mice were given a 7 day recovery period prior to the baseline von Frey testing as described below to confirm the induction of hyperalgesia in each mouse. […] Allodynic mice were then administered (i.p.) either vehicle (saline), morphine (10 mg/kg, i.p.), gabapentin (50 mg/kg, i.p.), CM304 (45 mg/kg, i.p.), or compound 15 (10–60 mg/kg, i.p.). Note that gabapentin was tested 1 h postinjection to circumvent known sedative effects that may confound the assay.[67] Each mouse was then tested for the modulation of tactile allodynia every 20 min up until 80 min post-injection with the use of von Frey testing. The assessment of mechanical allodynia was performed to measure compound 15’s efficacy against CCI-induced allodynia as described.[51]−[54] Mice were habituated on a mesh platform for 1 h prior to testing. Filaments of increasing pressure (0.4–6 g) were applied and then held to the plantar surface of both the injured and uninjured hind paws of mice for approximately 1–2 s prior to drug administration to record baseline responses to a peripheral stimulus. The filaments were applied with increasing strengths, and threshold responses were defined as two hind paw responses per trial of the same filament strength. Control or test compounds were administered (i.p.), and paw-withdrawal thresholds were again recorded from 20 to 80 min postinjection. Each hind paw was tested in a counterbalanced manner. Each time was measured in triplicate and then averaged. Responsiveness was a clear withdrawal, shaking, or licking of the paw. To account for variability between mice, data are presented as the percent of baseline paw withdrawal thresholds following filament stimulation of the ipsilateral hind paw. The following equation was used: % anti-allodynia = 100 × ([mean paw withdrawal force {g} in control group – paw withdrawal force {g} of each mouse]/mean paw withdrawal force [g] in control group).

σ1R [2] = biological target: σ1R; design: method as in PMID 22784008, PMID 31258480, PMID 31981633, PMID 32691179, PMID 28644012; conditions: cited from earlier work; for Ki: Figure 1, read-out: Ki σ1
σ1R [3] = biological target: T2, σ1R (Cavia porcellus, UniProt Q60492); design: method as in PMID 27262426; conditions: lead compound 8, selectivity ratio; cited from earlier work
T2 construct: from tissue; host or cells: guinea pig brain membrane homogenates

σ1R [4] = biological target: T2, σ1R; assay: σ1R radioligand binding assay ([3H]-pentazocine, guinea pig brain membrane homogenates); conditions: for Ki: mean ± SD of three independent experiments, [3H]-pentazocine, free base; for Ki σ2/Ki σ1: σ1R selectivity ratio over σ2R
Experimental: The binding assay for σ1R was carried out using guinea pig brain membrane homogenates according to DeHaven-Hudkins et al.,[58] while the binding assay for σ2R was performed following experimental procedures described by Mach et al.[59] Inhibitory constants (Ki) were calculated using the radioligand binding analysis software EBDA/Ligand (Elsevier/Biosoft).

[5] = tested on: formalin-induced inflammatory nociception; assay: Formalin-induced inflammation assay (time spent licking the paw); format: in vivo; conditions: C57BL/6J mice, 3–30 mg/kg i.p.; 15 as oxalate salt
Experimental: After a 10 min pretreatment (i.p.) of vehicle control (saline), CM304 (3–30 mg/kg, i.p.), or compound 15 (3–30 mg/kg, i.p.), an intraplantar (i.pl.) injection of 5% formalin ([…] in 15 μL) was administered into the right hind paw. Time spent licking the right hind paw was recorded in 5 min intervals for 60 min following injection. The last 55 min of assessment was used to determine the inflammatory response stimulus. Data were analyzed as the summed duration of licking hind paw.
All data are presented as mean ± SEM. Significance is indicated as *p < 0.05 and was analyzed using two-way ANOVA with Tukey’s post hoc analysis. Statistical analysis was performed with the use of GraphPad Prism 9.0 software. […]. The rotarod data are expressed as the % change from baseline performance for each animal’s baseline response.

T2 sequence (Q60492 whole entry): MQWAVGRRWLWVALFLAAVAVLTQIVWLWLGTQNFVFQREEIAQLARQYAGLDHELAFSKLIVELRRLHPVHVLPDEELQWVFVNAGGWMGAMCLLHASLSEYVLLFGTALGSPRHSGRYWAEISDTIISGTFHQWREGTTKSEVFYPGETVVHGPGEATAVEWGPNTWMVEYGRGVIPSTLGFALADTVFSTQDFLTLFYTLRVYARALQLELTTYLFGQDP

Row | Ki (σ1R [4]) [nM] | Ki σ2/Ki σ1 (σ1R [4]) | Structure (SMILES) | Ki (σ1R [2]) [nM] | further results
1 | – | – | O=c1sc2cc(CCCF)ccc2n1CCN1CCCCCC1 [Compound 1] | 0.96 | Ki (σ2R; Figure 1, read-out: Ki σ2): 467 nM; time of peak anti-allodynic effect ([1]; CD-1 mice, CM304 45 mg/kg i.p., began to diminish at 60 min): 40 min; anti-allodynic effect in the CCI model (result in words) ([1]; CD-1 mice, CM304 45 mg/kg i.p.): anti-allodynic effects that are comparable to those of gabapentin; Ki σ2/Ki σ1 (σ1R [2]; printed in Figure 1, σ1R selectivity): > 486
2 | – | – | COc1cc2c(cc1OC)CN(CCCCn1c(=O)n(C)c3ccccc31)CC2 [Compound 3, 1-(4-(6,7-dimethoxy-3,4-dihydroisoquinolin-2(1H)-yl)butyl)-3-methyl-1H-benzo[d]imidazol-2(3H)-one] | 560 | Ki σ1/Ki σ2 (σ2R; printed in Figure 1, σ2R selectivity): > 1,302
3 | – | – | OCCCN1CCCC2CC1c1cc(-c3ccc(C(F)(F)F)cc3)ccc12 (stereo not drawn) [Compound 4] | > 1000 | –
4 | – | – | CC(CCCn1c(=O)sc2cc(F)ccc21)N1CCN(C2CCCCC2)CC1 (stereo not drawn) [Compound 5] | 2.4 | –
5 | – | – | O=c1oc2ccc(Cl)cc2n1CCCCN1CCCCCC1 [Compound 6] | 2.3 | –
6 | – | – | COc1ccc(CN2CCN(C(=O)CCCCC3CCSS3)CC2)cc1 (stereo not drawn) [Compound 8] | – | Ki σ2/Ki σ1 (σ1R [3]): 432
7 | 18.1 ± 0.44 | 64 | COc1ccc(CN2CCN(C(=O)CCCCc3ccccc3)CC2)cc1 [Compound 13, 1-{4-[(4-Methoxyphenyl)methyl]piperazin-1-yl}-5-phenylpentan-1-one] | – | –
8 | 13.3 ± 0.22 | 124 | COc1ccc(CN2CCN(C(=O)CCCc3ccccc3)CC2)cc1 [Compound 14, 1-{4-[(4-Methoxyphenyl)methyl]piperazin-1-yl}-4-phenylbutan-1-one] | – | melting point: 91 to 93.9 °C
9 | 1.6 ± 0.05 | 886 | COc1ccc(CN2CCN(C(=O)CCC3CCCCC3)CC2)cc1 [Compound 15, 3-Cyclohexyl-1-{4-[(4-methoxyphenyl)methyl]piperazin-1-yl}propan-1-one] | – | antinociception in the formalin assay (result in words) [5]: dose-dependent (3–60 mg/kg, i.p.) antinociception and anti-allodynic effects; also recorded: significant dose-dependent antinociception; also recorded: dose-dependent increase in % antinociception; also recorded: significant antinociceptive and anti-allodynic effects; paw withdrawal thresholds in the CCI model (result in words) ([1]; 60 mg/kg, i.p., at 20, 60, and 80 min post-injection, p < 0.05): significant increases in withdrawal thresholds; anti-allodynic effect in the CCI model (result in words) ([1]; CD-1 mice, CM304 45 mg/kg i.p.): dose-dependent (3–60 mg/kg, i.p.) antinociception and anti-allodynic effects; also recorded: significant dose-dependent anti-allodynic effects; also recorded: significant antinociceptive and anti-allodynic effects
10 | 11.3 ± 0.26 | 351 | COc1ccc(CN2CCN(C(=O)/C=C/c3ccccc3)CC2)cc1 [Compound 16, (2E)-1-{4-[(4-Methoxyphenyl)methyl]piperazin-1-yl}-3-phenylprop-2-en-1-one] | – | melting point: 120.8 to 122.6 °C
11 | 102 ± 0.6 | 43 | COc1ccc(CN2CCN(C(=O)CCCOc3ccccc3)CC2)cc1 [Compound 20, 1-{4-[(4-Methoxyphenyl)methyl]piperazin-1-yl}-4-phenoxybutan-1-one] | – | melting point: 88.3 to 91.3 °C
12 | 8.8 ± 0.22 | 370 | COc1ccc(CN2CCN(C(=O)CCc3ccccc3)CC2)cc1 [Compound 21, 1-{4-[(4-Methoxyphenyl)methyl]piperazin-1-yl}-3-phenylpropan-1-one] | – | –
13 | 6.1 ± 0.1 | 423 | O=C(CCCCc1ccccc1)N1CCN(Cc2ccc(CO)cc2)CC1 [Compound 24, 1-(4-{[4-(Hydroxymethyl)phenyl]methyl}piperazin-1-yl)-5-phenylpentan-1-one] | – | –
14 | – | – | FCCC1Cc2ccccc2C2(CCC(N3CCN(C4CCCCC4)CC3)CC2)O1 (stereo not drawn) [cis-7] | 19 | –
15 | – | – | FCCC1Cc2ccccc2C2(CCC(N3CCN(C4CCCCC4)CC3)CC2)O1 (stereo not drawn) [trans-7] | 12 | –

Row | Structure (SMILES) | Ki (σ1R [4]) [nM] | Ki σ2/Ki σ1 (σ1R [4]) | Ki (σ1R [2]) [nM] | further results
16 | COc1ccc(CN2CCN(C(=O)Cc3ccccc3)CC2)cc1 [Compound 22, 1-{4-[(4-Methoxyphenyl)methyl]piperazin-1-yl}-2-phenylethan-1-one] | 145 ± 0.5 | 160 | – | melting point: 97.6 to 99.8 °C
